Assays:
[1] = system: DU-145 human prostate cancer cells; test: SRB cell growth inhibition assay, DU-145; assay type: cell-based; settings: DU-145 cells, 72 h exposure, read-out: Cytotoxicity IC50, DU-145
Experimental: (§1) The antitumor cytotoxicity of the compounds was evaluated in vitro against […] different cancer cell lines: PC-3 and DU-145 human prostate cancer, MCF-7 and MDA-MB-231 breast carcinoma and one non-tumoral cell line, dermal human fibroblasts (DHF). A conventional colorimetric assay was set up to estimate the IC50 values, which represent the concentration of a drug that is required for 50% inhibition in vitro after 72 h of continuous exposure to the test compounds. Four serial dilutions (from 12.5 to 100 µM) for each sample were evaluated in triplicate. The results obtained from these assays are shown in Table 1 and the following general observations can be made as a result: the natural ent-labdanes derivatives 3-5 (IC50 > 100) were the least cytotoxic of the series.
(§2) The colorimetric assay using sulforhodamine B (SRB) was realized following an adaptation of the described method by Skehan et al.. Cells were seeded in 96-well microtiter plates, at5 × 10^3 cells per well in aliquots of 100 µL of DMEM/F-12 medium, and they were allowed to attach to the plate surface by growing in drug-free medium for 18 h. Afterward, compounds samples were added in aliquots (dissolved in EtOH/H2O) to achieve a final concentration of 100, 50, 25 12.5 µM. After 72 h exposure, the in vitro cytotoxicity was measured by the SRB dye assay. Cells were fixed by adding cold 50% (wt/vol) trichloroacetic acid (TCA, 25 µL) and incubating for 60 min at 4 °C. Plates were washed with deionized water and dried; SRB solution (0.1% wt/vol in 1% acetic acid, 50 µL) was added to each microtiter well and incubated for 30 min at room temperature. Unbound SRB is removed by washing with 1% acetic acid. Plates were air-dried and bound stain was solubilized with Tris base (100 µL, 10 mM). Optical densities were read on an automated spectrophotometer plate reader at a single wavelength of 540 nm. Values shown are the % viability vs. ctrl + SD, n = four independent experiments in triplicate.

[2] = system: MDA-MB-231 breast carcinoma cells; test: SRB cell growth inhibition assay, MDA-MB-231; assay type: cell-based, human; settings: for IC50: Homo sapiens, MDA-MB-231 cells, 72 h exposure, SRB, read-out: Cytotoxicity IC50, MDA-MB-231; for cytotoxic bioactivity against MDA-MB-231 (in words): MDA-MB-231 breast carcinoma
Experimental: as §1, §2

[3] = system: PC-3 human prostate cancer cells; test: SRB cell growth inhibition assay, PC-3; assay type: cell-based; settings: PC-3 cells, 72 h exposure, read-out: Cytotoxicity IC50, PC-3
Experimental: as §1, §2

[4] = system: MCF-7 breast carcinoma cells; test: SRB cell growth inhibition assay, MCF-7; assay type: cell-based, human; settings: for IC50: Homo sapiens, MCF7, MCF-7 cells, 72 h exposure, SRB, read-out: Cytotoxicity IC50, MCF-7; for cytotoxic bioactivity against MCF-7 (in words): MCF-7 breast carcinoma
Experimental: as §1, §2

[5] = SRB cell growth inhibition assay, DHF (non-tumoral); assay type: cell-based; settings: dermal human fibroblasts (DHF), non-tumoral cells, 72 h exposure, read-out: Cytotoxicity IC50, DHF
Experimental: as §1, §2

SMILES: C=C1CCC2C(C)(C)CC(O)CC2(C)C1CCC(C)=CCc1c(OC)cc(OC)cc1OC (stereo not drawn) [Compound 10, 2β-Hydroxy-15-phenyl-(22,24,26-trimethoxy)-ent-labda-8(17),13(E)-diene]
- IC50 [1]: > 100 µM
- IC50 [2]: 85.9 µM
- cytotoxic bioactivity against MDA-MB-231 (in words) [2]: showed cytotoxic bioactivity
- IC50 [3]: 91.2 µM
- IC50 [4]: 45.6 µM
- cytotoxic bioactivity against MCF-7 (in words) [4]: showed cytotoxic bioactivity
- IC50 at 72 h [5]: > 100 µM

SMILES: C=C1CC[C@@H]2C(C)(C)C[C@@H](O)C[C@@]2(C)[C@@H]1CC/C(C)=C\CO [Compound 6]
- IC50 [1]: 96.2 µM
- IC50 [2]: 96 µM
- IC50 [3]: > 100 µM
- IC50 [4]: 74.9 µM
- IC50 at 72 h [5]: > 100 µM

SMILES: C=C1CC[C@@H]2C(C)(C)C[C@@H](O)C[C@@]2(C)[C@@H]1CC/C(C)=C/COC(C)=O [Compound 11, 2β-Hydroxy-15-acetoxy-ent-labda-8(17),13(E)-diene]
- IC50 [1]: > 100 µM
- IC50 [2]: > 100 µM
- IC50 [3]: 35.6 µM
- IC50 [4]: 86.9 µM
- IC50 at 72 h [5]: > 100 µM

SMILES: C=C1CC[C@@H]2C(C)(C)C[C@@H](O)C[C@@]2(C)[C@@H]1CC/C(C)=C/Cc1cc(O)ccc1O [Compound 8]
- IC50 [1]: 37.6 µM
- IC50 [2]: 61.8 µM
- IC50 [3]: 28.2 µM
- IC50 [4]: 34 µM
- IC50 at 72 h [5]: > 100 µM

SMILES: C=C1CC[C@@H]2C(C)(C)C[C@@H](O)C[C@@]2(C)[C@@H]1CC/C(C)=C/CO [Compound 4]
- IC50 [1]: > 100 µM
- IC50 [2]: > 100 µM
- IC50 [3]: > 100 µM
- IC50 [4]: 90.6 µM
- IC50 at 72 h [5]: > 100 µM

SMILES: C=C1CC[C@@H]2C(C)(C)C[C@@H](OC(C)=O)C[C@@]2(C)[C@@H]1CC/C(C)=C/Cc1cc(OC(C)=O)ccc1OC(C)=O [Compound 9, 2β-Acetoxy-15-phenyl-(22,25-acetoxy)-ent-labda-8(17),13(E)-diene]
- IC50 [1]: 62.9 µM
- IC50 [2]: 33.8 µM
- cytotoxic bioactivity against MDA-MB-231 (in words) [2]: showed cytotoxic bioactivity
- IC50 [3]: 64.3 µM
- IC50 [4]: 41.1 µM
- cytotoxic bioactivity against MCF-7 (in words) [4]: showed cytotoxic bioactivity
- IC50 at 72 h [5]: 72.3 µM

SMILES: C=C1CC[C@@H]2C(C)(C)C[C@@H](OC(C)=O)C[C@@]2(C)[C@@H]1CC/C(C)=C/Cc1cc(O)ccc1O [Compound 7]
- IC50 [1]: 44.6 µM
- IC50 [2]: 75.9 µM
- IC50 [3]: 21.4 µM
- IC50 [4]: 23.9 µM
- IC50 at 72 h [5]: > 100 µM

SMILES: C=C1CC[C@@H]2C(C)(C)C[C@@H](OC(C)=O)C[C@@]2(C)[C@@H]1CC/C(C)=C/CO [Compound 3]
- IC50 [1]: > 100 µM
- IC50 [2]: > 100 µM
- IC50 [3]: > 100 µM
- IC50 [4]: > 100 µM
- IC50 at 72 h [5]: > 100 µM

SMILES: C=C1CC[C@@H]2C(C)(C)C[C@@H](OC(C)=O)C[C@@]2(C)[C@@H]1CC/C(C)=C\CO [Compound 5]
- IC50 [1]: > 100 µM
- IC50 [2]: > 100 µM
- IC50 [3]: > 100 µM
- IC50 [4]: > 100 µM
- IC50 at 72 h [5]: > 100 µM

— publication PMC6257776, “Synthesis and Antitumor Activity of Diterpenylhydroquinone Derivatives of Natural Ent-Labdanes” (Molecules, 2010)
